According to article PMC6499206, “Quantification of Volatile Metabolites Derived From Garlic (Allium sativum) in Human Urine” (Frontiers in Nutrition, 2019):

Assay: Quantification of garlic-derived metabolites in human urine after ingestion of 3 g raw garlic (SIDA, SAFE, HRGC-MS / HRGC-GC-MS)
Type: in vivo
Design: metabolite in urine related to creatinine: unit not given here
Details: for metabolite concentration in urine, creatinine-normalized / metabolite concentration in urine / highest detected concentration of the sample series: 3 g raw garlic; for highest detected concentration of the sample series: same bulb
Description: Human urine samples were obtained from 18 volunteers (age 22–38 years, mean 27 years; 11 females, 7 males); thereby, one volunteer conducted the whole experimental series twice. At the time of examination, volunteers reported no known illness that might have potentially influenced the metabolism or the excretion of urine. The test persons were instructed to avoid foods that were rich in sulfur-containing substances at the testing day as well as 2 days preceding the testing day, namely garlic, onion, wild garlic, chives, cabbage, and leek, and were only allowed to consume the garlic sample provided in the course of the experiments. Additionally, subjects were asked to keep records of the food (including food supplements) and beverages they consumed during these 3 testing days. Generally, the overall panelists' requirements were in accordance with our previous studies ([5], [16]).
On the sampling day, the outer garlic cloves of a whole garlic bulb were peeled and cut into ~3 mm cubes by using a garlic cutter (Genius GmbH, Limburg/Lahn, Germany). Subsequently these cubes were thoroughly mixed and aliquoted into 3 g portions. Three to four test persons conducted the experiment at the same day. Each test person was asked to ingest a garlic portion of 3 g. In total, eight consecutive urine samples were provided by each test person, comprising one whole urine set. The samples were collected in sterile brown glass bottles, with sampling times as follows: one sample was provided directly prior to garlic consumption. The series of the second to eighth sample was then obtained at about 0.5, 1, 2, 4, 6, 8, and 24 h after garlic consumption, respectively. Between the first urine sample (prior to garlic consumption) and the seventh urine sample (8 h after garlic consumption) test persons only spent urine at the specific time points mentioned before. Another sample was provided at the next morning (24 h after garlic consumption). Between the samples provided 8 and 24 h after garlic consumption no urine was collected. All samples were immediately placed into a −80°C freezer and were kept frozen until further analysis.
The samples of each set were termed according to their sampling time. The following list provides the time intervals that are related to the respective sample name: • - pre: before garlic consumption • - 0.5 h post: 0.4–0.8 h after garlic consumption • - 1 h post: 0.9–1.3 h after garlic consumption • - 2 h post: 1.8 h−2.2 h after garlic consumption • - 4 h post: 3.8–4.4 h after garlic consumption • - 6 h post: 5.8–6.4 h after garlic consumption • - 8 h post: 7.8–8.4 h after garlic consumption • - 24 h post: 23.8–25.6 h after garlic consumption
A creatinine kit (Labor+Technik Eberhard Lehmann GmbH, Berlin, Germany) was used to determine the creatinine content in each urine sample. The determination principle of this kit is based on the reaction of creatinine with picric acid under basic conditions (Jaffé reaction). The formed complex was detected photometrically at a wavelength of 492 nm.
For quantification purposes, the deuterated standards ^2H3-AMS, ^2H3-AMSO, and ^2H3-AMSO2 were added to the sample and stirred for 10 min. Subsequently, DCM was added in a ratio of 1:2 (DCM/human urine; v/v) and this solution was stirred for further 30 min at room temperature. To isolate the volatile fraction from the urine samples we then applied SAFE-distillation ([17]), thereby distilling the respective samples at 50°C. After completion of the distillation process, 10 mL of DCM were applied in each case to rinse the SAFE apparatus and to ensure complete transition of the volatile compounds. This process was repeated with another 10 mL of DCM. After thawing, the obtained aqueous distillate phase was extracted three times with 25 mL DCM. The organic phases were combined, dried over anhydrous Na2SO4 and concentrated to a total volume of 100 μL by means of Vigreux distillation and subsequent micro-distillation at 50°C. […]

metabolite concentration in urine, creatinine-normalized (U XII, 1 h post (1.03 h)): 83.2 µg/mmol creatinine
metabolite concentration in urine (U XII, 2 h post (1.85 h)): 72.2 µg/kg
metabolite concentration in urine, creatinine-normalized (U XII, 2 h post (1.85 h)): 108.2 µg/mmol creatinine
metabolite concentration in urine (U XII, 4 h post (3.80 h)): 84.6 µg/kg
metabolite concentration in urine, creatinine-normalized (U XII, 4 h post (3.80 h)): 31.9 µg/mmol creatinine
metabolite concentration in urine (U XII, 6 h post (5.82 h)): 61.6 µg/kg
metabolite concentration in urine, creatinine-normalized (U XII, 6 h post (5.82 h)): 10.8 µg/mmol creatinine
metabolite concentration in urine (U XII, 8 h post (7.82 h)): 28.7 µg/kg
metabolite concentration in urine, creatinine-normalized (U XII, 8 h post (7.82 h)): 10.1 µg/mmol creatinine
metabolite concentration in urine (U XII, 24 h post (23.92 h)): 11.3 µg/kg
metabolite concentration in urine, creatinine-normalized (U XII, 24 h post (23.92 h)): 0.8 µg/mmol creatinine
metabolite concentration in urine (U XII, pre (-0.08 h)): 3.9 µg/kg
metabolite concentration in urine, creatinine-normalized (U XII, pre (-0.08 h)): 0.2 µg/mmol creatinine
metabolite concentration in urine (U XIII, 0.5 h post (0.42 h)): 38.0 µg/kg
metabolite concentration in urine, creatinine-normalized (U XIII, 0.5 h post (0.42 h)): 23.8 µg/mmol creatinine
metabolite concentration in urine (U XIII, 1 h post (0.92 h)): 216.6 µg/kg
metabolite concentration in urine, creatinine-normalized (U XIII, 1 h post (0.92 h)): 87.7 µg/mmol creatinine
metabolite concentration in urine (U XIII, 2 h post (1.92 h)): 197.5 µg/kg
metabolite concentration in urine, creatinine-normalized (U XIII, 2 h post (1.92 h)): 57.1 µg/mmol creatinine
metabolite concentration in urine (U XIII, 4 h post (3.92 h)): 105.6 µg/kg
metabolite concentration in urine, creatinine-normalized (U XIII, 4 h post (3.92 h)): 22.5 µg/mmol creatinine
metabolite concentration in urine (U XIII, 6 h post (5.92 h)): 42.9 µg/kg
metabolite concentration in urine, creatinine-normalized (U XIII, 6 h post (5.92 h)): 3.7 µg/mmol creatinine
metabolite concentration in urine (U XIII, 8 h post (7.92 h)): 2.6 µg/kg
metabolite concentration in urine, creatinine-normalized (U XIII, 8 h post (7.92 h)): 0.3 µg/mmol creatinine
metabolite concentration in urine (U XIII, 24 h post (23.92 h)): 2.6 µg/kg
metabolite concentration in urine, creatinine-normalized (U XIII, 24 h post (23.92 h)): 0.3 µg/mmol creatinine
metabolite concentration in urine (U XIII, pre (-0.08 h)): < LOD^2
metabolite concentration in urine, creatinine-normalized (U XIII, pre (-0.08 h)): < LOD^2
variation factor of the concentration maxima between test persons (Urine XIII-XVI, highest vs lowest maximum): up to 3.0
highest detected concentration of the sample series (Urine XIII): 87.7 μg/mmol creatinine
highest detected concentration of the sample series (Urine XIV (AMS: printed Urine UIV)): 84.7 μg/mmol creatinine
highest detected concentration of the sample series (Urine XV): 150.4 μg/mmol creatinine
highest detected concentration of the sample series (Urine XVI): 50.1 μg/mmol creatinine
metabolite in urine related to creatinine (urine set U XIX, 0.5 h post (0.50 h), garlic 3.1133 g): 15.1
metabolite in urine related to creatinine (urine set U XIX, 1 h post (1.00 h), garlic 3.1133 g): 68.8
metabolite in urine related to creatinine (urine set U XIX, 2 h post (2.00 h), garlic 3.1133 g): 70.6
metabolite in urine related to creatinine (urine set U XIX, 4 h post (4.00 h), garlic 3.1133 g): 27.0
metabolite in urine related to creatinine (urine set U XIX, 6 h post (6.20 h), garlic 3.1133 g): 9.8
metabolite in urine related to creatinine (urine set U XIX, 8 h post (7.93 h), garlic 3.1133 g): 5.9
metabolite in urine related to creatinine (urine set U XIX, 24 h post (23.98 h), garlic 3.1133 g): 0.2
metabolite in urine related to creatinine (urine set U XIX, pre (-0.07 h), garlic 3.1133 g): < LOD^2
metabolite in urine related to creatinine (urine set U XVII, 0.5 h post (0.58 h), garlic 3.1559 g): 0.8
metabolite in urine related to creatinine (urine set U XVII, 1 h post (1.00 h), garlic 3.1559 g): 10.7
metabolite in urine related to creatinine (urine set U XVII, 2 h post (2.17 h), garlic 3.1559 g): 27.6
metabolite in urine related to creatinine (urine set U XVII, 4 h post (4.00 h), garlic 3.1559 g): 15.5
metabolite in urine related to creatinine (urine set U XVII, 6 h post (6.08 h), garlic 3.1559 g): 1.2
metabolite in urine related to creatinine (urine set U XVII, 8 h post (8.00 h), garlic 3.1559 g): 1.8
metabolite in urine related to creatinine (urine set U XVII, 24 h post (23.92 h), garlic 3.1559 g): 0.2
metabolite in urine related to creatinine (urine set U XVII, pre (-0.08 h), garlic 3.1559 g): 0.3
metabolite in urine related to creatinine (urine set U XVIII, 0.5 h post (0.63 h), garlic 3.1981 g): 44.1
metabolite in urine related to creatinine (urine set U XVIII, 1 h post (1.05 h), garlic 3.1981 g): 84.8
metabolite in urine related to creatinine (urine set U XVIII, 2 h post (2.00 h), garlic 3.1981 g): 94.9
metabolite in urine related to creatinine (urine set U XVIII, 4 h post (3.97 h), garlic 3.1981 g): 50.9
metabolite in urine related to creatinine (urine set U XVIII, 6 h post (5.97 h), garlic 3.1981 g): 16.6
metabolite in urine related to creatinine (urine set U XVIII, 8 h post (8.30 h), garlic 3.1981 g): 17.1
metabolite in urine related to creatinine (urine set U XVIII, 24 h post (24.13 h), garlic 3.1981 g): 0.5
metabolite in urine related to creatinine (urine set U XVIII, pre (-0.08 h), garlic 3.1981 g): < LOD^2
SMILES: C=CC[S+](C)[O-] (stereo not shown) [AMSO, allyl methyl sulfoxide]
